Assay results from PMC8266241, “Tetralone derivatives are MIF tautomerase inhibitors and attenuate macrophage activation and amplify the hypothermic response in endotoxemic mice” (Journal of Enzyme Inhibition and Medicinal Chemistry, 2021).
Like-named read-outs stand apart in the source and are kept apart here.

Experiments:
[1] = target: T1, recombinant human MIF (Homo sapiens, UniProt P14174); experiment: Tautomerase assay: enol-keto tautomeric conversion of phenylpyruvate (ketonase reaction); assay type: biochemical; details: for IC50: enol-keto conversion of phenylpyruvate, 100 µM substrate, pH 6.5, read-out: Inhibition of ketonase (IC50); for IC50enolase/IC50ketonase: selectivity for ketonase
T1 construct: purchased ATGen Co. Ltd., Seoul, Republic of Korea
T1 sequence (P14174 2-115 limits assumed): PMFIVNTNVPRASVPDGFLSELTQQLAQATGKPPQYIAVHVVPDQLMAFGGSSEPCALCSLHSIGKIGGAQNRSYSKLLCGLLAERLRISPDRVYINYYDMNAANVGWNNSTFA
Description: The enol-keto tautomeric conversion of phenylpyruvate (ketonase reaction) was assessed at room temperature by monitoring the decrease in absorbance at 288 nm on a dual path Shimadzu 2100 UV spectrophotometer (Shimadzu, Kyoto, Japan) according to Taylor et al.[55] with minor modifications. Briefly, the 0.72 ml reaction mixture consisted of the enzyme at a final concentration of 0.4 µg/ml and the substrate in a 50 mM sodium phosphate buffer (pH = 6.5). The phenylpyruvate substrate was dissolved fresh in absolute ethanol to yield a final concentration of 100 µM. The reaction was monitored for 75 s at room temperature. A recombinant human MIF (from ATGen Co. Ltd., Seoul, Republic of Korea) was used as the enzyme source. Inhibitors were dissolved fresh in ethanol or DMSO. […] The compounds were diluted to achieve final concentrations of 200, 100, 50, 20, 5, 1, and 0.5 µM in the reaction mixture. All data presented have been derived from consonant measurements repeated at least three times. […] The areas under the curves obtained with and without the inhibitors were used to compare the conversion rates of the substrate.

[2] = target: T1, recombinant human MIF; experiment: Tautomerase assay: keto-enol tautomeric conversion of phenylpyruvate (enolase activity); assay type: biochemical; details: for IC50: keto-enol conversion of phenylpyruvate, read-out: Inhibition of enolase (IC50)
[3] = test system: RAW264.7 cells; experiment: ROS production in LPS-induced macrophages (DHR123); assay type: cell-based, mouse; details: 20 µM pre-treatment, 1 µg/ml LPS 24 h; for decrease in ROS concentrations: vs LPS-activated cells
Description: (§1) In cell culture experiments, we used RAW264.7 mouse monocyte/macrophage cell line (ECACC, Salisbury, UK; passage number: 8–15) and RAW-Blue™ cells (Invivogen, Toulouse France, passage number: 10–14). RAW264.7 and RAW-Blue™ cells were cultured in 5% CO2 at 37 °C in endotoxin-tested Dulbecco’s Modified Eagle’s Medium (high glucose, 4.5 g/L, 2 mM L-glutamine; Corning, Corning Incorporated Costar, Corning, NY) supplemented with 10% FBS. For culturing RAW-Blue™ cells, we also added 100 µg/ml normocin and 200 µg/ml zeocin to the medium. The day before the experiments, cells were plated onto 24- or 96-well plates and cultured overnight. […] The freshly synthesised tetralone derivatives were dissolved in DMSO and applied in 20 µM concentration as a pre-treatment, added 30 min before LPS induction. To exclude the effects of vehicle, both CTRL and LPS-treated cells received the same amount of DMSO.
To measure the amount of reactive oxygen species we seeded RAW264.7 cells onto 96-well plates in a density of 10^5cells/well. Cells were treated with the tetralones as a pre-treatment and they were induced with 1 µg/ml LPS for 24 h. Then 2 µM dihydrorhodamine123 (DHR123; Life Technologies, Carlsbad, CA) fluorescent dye was added and incubated for an additional 2 h. Fluorescent intensity of the dye (excitation 490 nm/emission 510–570 nm) was measured with Glomax Multi Detection System (Promega®, Madison, WI, USA).

[4] = test system: RAW264.7 cells; experiment: Nitrite production in LPS-induced macrophages (Griess reagent); assay type: cell-based, mouse; details: 20 µM pre-treatment, 1 µg/ml LPS 24 h; for lower nitrite concentrations: vs LPS-activated cells
Description: as §1
For nitrite measurements, we applied the same culturing conditions, treatments, and equipment as described above. After 24 h of incubation, 50 µl medium was removed and added to equal amount of Griess reagent (Sigma-Aldrich, St. Louis, MO, USA) in 96-well plate. The optical density was measured at 550 nm wavelength.

[5] = test system: NF-κB activation in RAW-Blue™ cells; experiment: NF-κB activation reporter assay (QUANTI-Blue); assay type: cell-based, mouse; details: 20 µM pre-treatment, 1 µg/ml LPS 24 h, vs LPS-activated cells
Description: as §1
The detection of NF-κB activation was accomplished by using RAW-Blue™ cells. RAW-Blue™ cells are genetically modified RAW264.7 macrophages, which are able to secrete embryonic alkaline phosphatase (EAP) upon LPS induction and following NF-κB activation. The levels of EAP can be examined using QUANTI-Blue™ detection medium.
RAW-Blue™ cells were seeded into 96-well plate at a density of 10^5cells/well. Cells were treated with tetralones (pre-treatment, 20 µM) and with 1 µg/ml LPS. 24 h after LPS treatment 20 µl medium was removed and incubated with 100 µl QUANTI-Blue™ detection medium (Invivogen; Toulouse, France) in 96-well plates. The optical density was measured at 600 nm.

[6] = test system: TNF-α in RAW264.7 cells; experiment: TNF-α production, ELISA; assay type: cell-based, mouse; details: 20 µM pre-treatment, 1 µg/ml LPS 24 h
Description: as §1, with “To exclude the effects of vehicle, both CTRL and LPS-treated cells received the same amount of DMSO.” left out
(§2) For cytokine concentration measurements, RAW264.7 cells were cultured in 24-well plates at a density of 5*10^5 cells/well and treated with tetralones (pre-treatment, 20 µM) and with 1 µg/ml LPS for 24 h. TNF-α, IL-6 and CCL-2 levels were determined from the culturing media by using Ready-Set-Go ELISA kits (eBioscience, San Diego, CA, USA) for TNF-α and IL-6 detection and mouse CCL-2 uncoated ELISA-kit (Invitrogen, Vienna, Austria) for CCL-2 determination. ELISA-kits were applied as provided by the protocol of the manufacturer, the optical density was measured at 450 nm.

[7] = test system: IL-6 in RAW264.7 cells; experiment: IL-6 production, ELISA; assay type: cell-based, mouse; details: 20 µM pre-treatment, 1 µg/ml LPS 24 h
Description: as §1, with “To exclude the effects of vehicle, both CTRL and LPS-treated cells received the same amount of DMSO.” left out
as §2

[8] = target: T1, recombinant human MIF; set-up: method as in PMID 15778121; details: reference inhibitor; read-out: ketonase IC50 of reference inhibitor; cited from earlier work
[9] = target: T1, recombinant human MIF; set-up: method as in PMID 15778121; details: reference inhibitor; read-out: enolase IC50 of reference inhibitor; cited from earlier work

IC50 [1] [µM]	IC50 [2] [µM]	Structure (SMILES)	further results
82.8 ± 16.5	20.2 ± 3.9	O=C1/C(=C/c2ccccc2)Cc2ccccc21 [Compound 1, E-2-phenylmethylene-1-indanone]	–
127 ± 20	113 ± 16	O=C1/C(=C/c2ccccc2)CCc2ccccc21 [Compound 2]	–
84 ± 15.3	129 ± 19	O=C1/C(=C/c2ccccc2)CCCc2ccccc21 [Compound 3, E-2-phenylmethylene-1-benzosuberone]	–
16.5 ± 3.4	2290 ± 343	Cc1ccc(/C=C2\CCc3ccccc3C2=O)cc1 [Compound 4]	effect on ROS level [3]: failed to modify ROS level; effect on nitrite production [4]: could also inhibit nitrite production, but to a lower extent; effect on NF-κB activation [5]: slight, but statistically significant inhibitory effect
7340 ± 1020	3350 ± 424	O=C1/C(=C/c2cccc(Br)c2)CCc2ccccc21 [Compound 9]	–
90.2 ± 15.1	495 ± 101	CN(C)c1ccc(/C=C2\CCc3ccccc3C2=O)cc1 [Compound 15]	–
50.7 ± 6	213 ± 31	O=C1/C(=C/c2ccc3c(c2)OCO3)CCc2ccccc21 [Compound 18]	–
20.3 ± 5.5	28.6 ± 6	O=C1C(=Cc2cccnc2)CCc2ccccc21 [Compound 25]	–
267 ± 59	1740 ± 483	O=C1/C(=C/c2ccccc2)COc2ccccc21 [Compound 27]	–
102 ± 19	3620 ± 829	Cc1ccc(/C=C2\COc3ccccc3C2=O)cc1 [Compound 28]	–
56.1 ± 8.8	443 ± 112	Cc1cccc(/C=C2\COc3ccccc3C2=O)c1 [Compound 29]	–
96 ± 29.9	425 ± 70	COc1ccc(/C=C2\COc3ccccc3C2=O)cc1 [Compound 30]	–
97 ± 20.7	205 ± 32	COc1cccc(/C=C2\COc3ccccc3C2=O)c1 [Compound 31]	–
4.31 ± 1.34	1260 ± 159	COc1ccccc1/C=C1\COc2ccccc2C1=O [Compound 32]	decrease in ROS concentrations [3]: ~20%; lower nitrite concentrations [4]: ~50%; effect on NF-κB activation [5]: could not show any reducing effect; effect on TNF-α production [6]: reduced TNF-α production; effect on IL-6 production [7]: had the most dominant effect
311 ± 77	1890 ± 438	O=C1/C(=C/c2ccc(Br)cc2)COc2ccccc21 [Compound 33]	–
98.3 ± 16	3200 ± 887	O=C1/C(=C/c2ccccc2Br)COc2ccccc21 [Compound 34]	–
208 ± 42	633 ± 108	O=C1/C(=C\c2ccccc2)CSc2ccccc21 [Compound 36]	–

The next lines start with the compound.

Structure (SMILES)	IC50 [1] [µM]	IC50 [2] [µM]	further results
O=C1/C(=C/c2ccccc2)C[S+]([O-])c2ccccc21 (racemic) [Compound 37]	94.6 ± 25.4	193 ± 59	–
COc1ccc(/C=C2\CCc3ccccc3C2=O)cc1 [Compound 5]	57 ± 14.1	33.4 ± 8.8	–
O=C1/C(=C/c2ccc(Cl)cc2)CCc2ccccc21 [Compound 6]	59.1 ± 9.7	42.8 ± 3.1	–
O=C1/C(=C/c2ccccc2Cl)CCc2ccccc21 [Compound 7]	2640 ± 406	458 ± 73	–
O=C1/C(=C/c2ccc(Br)cc2)CCc2ccccc21 [Compound 8]	52.2 ± 11.5	232 ± 54	–
O=C1/C(=C/c2ccc(F)cc2)CCc2ccccc21 [Compound 10]	72.4 ± 3.4	42.1 ± 4.3	–
O=C1/C(=C/c2c(Cl)cccc2Cl)CCc2ccccc21 [Compound 11]	58.9 ± 10.3	35.5 ± 5.9	–
O=C1/C(=C/c2ccc(Cl)c(Cl)c2)CCc2ccccc21 [Compound 12]	2620 ± 696	91.5 ± 9	–
O=C1/C(=C/c2ccc(Cl)cc2Cl)CCc2ccccc21 [Compound 13]	16.9 ± 4.2	301 ± 42	IC50enolase/IC50ketonase [1]: 18
O=C(O)c1ccc(/C=C2\CCc3ccccc3C2=O)cc1 [Compound 14]	187 ± 32	37.7 ± 16.3	–
N#Cc1ccc(/C=C2\CCc3ccccc3C2=O)cc1 [Compound 16]	146 ± 17	43.2 ± 12.4	–
COc1ccc(/C=C2\CCc3ccccc3C2=O)cc1OC [Compound 17]	585 ± 94	302 ± 63	–
O=C1/C(=C/c2ccco2)CCc2ccccc21 [Compound 19]	57.7 ± 12.6	25.4 ± 4.7	–
O=C1/C(=C/c2cccs2)CCc2ccccc21 [Compound 20]	54 ± 5.5	52.3 ± 7.6	–
O=C1/C(=C/c2ccc[nH]2)CCc2ccccc21 [Compound 21]	142 ± 31	125 ± 39	–
Cn1cccc1C=C1CCc2ccccc2C1=O [Compound 22]	23.8 ± 3.8	27.8 ± 5.6	–
O=C1/C(=C/c2c[nH]c3ccccc23)CCc2ccccc21 [Compound 23]	58.8 ± 10.6	2.89 ± 0.75	IC50ketonase/IC50enolase ([2]; selectivity for enolase): 20; effect on ROS level [3]: induced a slight increase; effect on nitrite production [4]: could also inhibit nitrite production, but to a lower extent; effect on NF-κB activation [5]: slight, but statistically significant inhibitory effect
O=C1/C(=C/c2ccncc2)CCc2ccccc21 [Compound 26]	21 ± 6.9	209 ± 77	IC50enolase/IC50ketonase [1]: 10; decrease in ROS concentrations [3]: ~20%; lower nitrite concentrations [4]: ~50%; effect on NF-κB activation [5]: slight, but statistically significant inhibitory effect; effect on TNF-α production [6]: reduced TNF-α production; effect on IL-6 production [7]: had the most dominant effect
O=C1/C(=C/c2ccccc2)C(c2ccccc2)Oc2ccccc21 (stereo not shown) [Compound 35]	419 ± 113	–	–
O=C1/C(=C/c2ccccc2)CS(=O)(=O)c2ccccc21 [Compound 38]	160 ± 38	151 ± 27	–
O=C(O)/C=C/c1ccc(O)c(O)c1 [caffeic acid]	–	–	IC50 [8]: 0.5 µM; IC50 [9]: 2 µM
